Drawing on patent US11021481B2, “Substituted isoindolin-1-ones and 2,3-dihydro-1h-pyrrolo[3,4-c]pyridin-1-ones as HPK1 antagonists” (Nimbus Saturn, Inc., priority 2019, dated 2021), this text covers IC50 for 31 compounds.

Molecules are shown by their SMILES.

HPK1, sequence (Q92918 whole entry): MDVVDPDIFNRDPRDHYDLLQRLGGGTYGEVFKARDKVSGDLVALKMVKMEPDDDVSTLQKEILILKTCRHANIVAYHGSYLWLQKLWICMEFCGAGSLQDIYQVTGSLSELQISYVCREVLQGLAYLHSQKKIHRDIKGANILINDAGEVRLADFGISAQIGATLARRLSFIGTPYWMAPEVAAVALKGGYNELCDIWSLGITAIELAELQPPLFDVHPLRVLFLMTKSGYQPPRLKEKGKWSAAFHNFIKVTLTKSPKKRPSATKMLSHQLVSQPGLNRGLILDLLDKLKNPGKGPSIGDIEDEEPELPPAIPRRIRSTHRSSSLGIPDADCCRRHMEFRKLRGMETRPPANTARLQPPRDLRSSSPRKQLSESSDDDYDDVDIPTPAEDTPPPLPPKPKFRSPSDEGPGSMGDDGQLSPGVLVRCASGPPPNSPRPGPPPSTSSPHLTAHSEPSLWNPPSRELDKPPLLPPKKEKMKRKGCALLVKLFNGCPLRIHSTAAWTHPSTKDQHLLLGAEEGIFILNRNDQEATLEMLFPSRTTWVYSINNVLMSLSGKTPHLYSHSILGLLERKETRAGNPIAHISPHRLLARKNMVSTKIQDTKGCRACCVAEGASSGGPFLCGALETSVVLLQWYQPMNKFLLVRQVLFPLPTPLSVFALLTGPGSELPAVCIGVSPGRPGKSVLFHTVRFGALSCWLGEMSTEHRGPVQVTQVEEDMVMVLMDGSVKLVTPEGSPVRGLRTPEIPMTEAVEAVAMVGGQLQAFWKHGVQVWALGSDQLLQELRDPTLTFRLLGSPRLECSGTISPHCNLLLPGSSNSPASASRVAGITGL

This assay concerns the target HPK1 (Homo sapiens (Human), UniProt Q92918). Put plainly: HPK1 biochemical enzyme assay (microfluidic mobility shift assay). The conditions noted are these: 1.5 nM HPK1, ATP 1 mM final, 30 min preincubation, 60 min at RT, Caliper EZ Reader; read-out: HPK1 1000UMATP caliper IC50. A digest of the protocol: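 Mobility shift readout of HPK1 activity after a 60 min RT reaction with 1 mM ATP, 1 μM substrate and 5 mM MgCl2. Enzyme/substrate mix was first exposed to compounds for 30 min, using ten-point curves topping at 3 μM final.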
On to `C[C@H]1C[C@@H](O)CCN1c1ccc(Nc2ccc(-c3cnc4cnccn34)c3c2C(=O)NC3)nc1` [I-349, 7-((5-((2S,4S)-4-hydroxy-2-methylpiperidin-1-yl)pyridin-2-yl)amino)-4-(imidazo[1,2-a]pyrazin-3-yl)isoindolin-1-one], for which the IC50 is < 100 nM. Regarding `Cn1ccc2c(-c3ccc(Nc4ccc(N5CCC[C@@H](C(C)(C)O)C5)cn4)c4c3CNC4=O)ccnc21` (single isomer, unassigned) [I-281], the IC50 was < 100 nM. In the case of `O=C1NCc2c(-c3cnn4ccccc34)ncc(Nc3ccc(N4CCC(O)CC4)cn3)c21` [I-464, 7-[[5-(4-hydroxy-1-piperidyl)-2-pyridyl]amino] 4-pyrazolo[1,5-a]pyridin-3-yl-2,3-dihydropyrrolo [3,4-c]pyridin-l-one], the IC50 is < 100 nM. In the case of `O=C1NCc2c(-c3cnc4cc(F)ccn34)ccc(Nc3ccc([C@@H]4CCOC4)c(CN4CCC[C@@H]4CO)n3)c21` [I-826, 4-(7-fluoroimidazo [1,2-a]pyridin-3-yl)-7-((6-(((R)-2-(hydroxymeth-yl)pyrrolidin-1-yl)methyl)-5-((S)-THF-3-yl)pyridin-2-yl)amino)isoin-dolin-1-one] it was < 100 nM; in that of `Cn1cnc2c(-c3ccc(Nc4ccc(N5CCC(O)CC5)cn4)c4c3CNC4=O)cccc21` [I-173, 7-[[5-(4-hydroxy-1-piperidyl)-2-pyridyl]amino]-4-(1-methylbenz-imidazol-4-yl)isoindolin-1-one], < 100 nM. In the case of `CN1CCN(c2cccc(Nc3cnc(-c4ccnc5c4ccn5C)c4c3C(=O)NC4)n2)CC1` [I-327, 4-(1-methyl-1H-pyrrolo[2,3-b]pyridin-4-yl)-7-((6-(4-methylpiperazin-1-yl)pyridin-2-yl)amino)-2,3-dihydro-1H-pyrrolo[3,4-c]pyridin-1-one] it was < 100 nM; in that of `CN1CCN(c2ccc(Nc3ccc(-c4c[nH]c5ccccc45)c4c3C(=O)NC4)nc2)CC1` [I-46, 4-(1H-indol-3-yl)-7-[[5-(4-methylpiperazin-1-yl)-2-pyridyl]amino] isoindolin-1-one], < 100 nM; in that of `Cc1ccc2ncc(-c3ccc(Nc4ccc(N5CCN(C)CC5)cn4)c4c3CNC4=O)n2c1` [I-51, 4-(6-methylimidazo [1,2-a]pyridin-3-yl-)-7-[[5-(4-methylpiperazin-1-yl)-2-pyridyl]amino] isoindolin-1-1-one], < 100 nM. As for `CNC1CCN(c2ccc(Nc3ccc(-c4ccnc5c4ccn5C)c4c3C(=O)NC4)nc2)CC1` [I-62, 7-[[5-[4-(methylamino)-1-piperidyl]-2-pyridyl]amino]-4-(1-methylpyrrolo [2,3-b]pyridin-4-yl)isoindolin-1-one], the half-maximal inhibitory concentration (IC50) was < 100 nM. In the case of `Cn1ccc2c(-c3ccc(Nc4ccc(N5CCOCC5)cn4)c4c3CNC4=O)ccnc21` [I-110, 4-(1-methylpyrrolo [2,3-b]pyridin-4-yl)-7-[(5-morpholino-2-pyridyl)amino] isoindolin-1-one], the IC50 was < 100 nM. Turning to `CN(C)Cc1nc(Nc2ccc(-c3cnc4cc(F)ccn34)c3c2C(=O)NC3)ccc1N1CC[C@H](F)[C@@H](O)C1` [I-701, 7-((6-((dimethylamino)-methyl)-5-((3S.4S]-4-fluoro-3-hydroxypiperidin-1-yl)pyridin-2-yl)amino)-4-(7-fluoroimidazo [1,2-a]pyridin-3-yl)isoindolin-1-one], the IC50 was < 100 nM.

Turning to `CN(C)Cc1nc(Nc2ccc(-c3cnc4cc(F)ccn34)c3c2C(=O)NC3)ccc1N1CCO[C@@H](C(C)(C)O)C1` [I-775, (R)-7-((6-((dimethylamino)-methyl)-5-(2-(2-hydroxypropan-2-yl)morpho-lino)pyridin-2-yl)amino)-4-(7-fluoroimidazo [1,2-a]pyridin-3-yl)isoindolin-1-one], the IC50 was < 100 nM. On to `C[C@@H](O)[C@H]1CN(c2ccc(Nc3ccc(-c4cnc5cc(F)ccn45)c4c3C(=O)NC4)nc2)CCO1` (single isomer, unassigned) [I-619], for which the IC50 was < 100 nM.

`CC(C)(O)[C@@H]1CN(c2ccc(Nc3ccc(-c4cnc5cc(C(F)F)ccn45)c4c3C(=O)NC4)nc2)CCO1` [I-492, 4-[7-(difluoromethyl)-imidazo[1,2-a]pyridin-3-yl]-7-[[5-[(2S)-2-(1-hydroxy-1-methyl-ethyl)morpholin-4-yl]-2-pyridyl]amino]isoindolin-1-one]: the IC50 was < 100 nM. To `Cn1ccc2c(-c3ncc(Nc4ccc(C5(O)CCOCC5)cn4)c4c3CNC4=O)ccnc21` [I-427] belongs < 100 nM.

Regarding `O=C1NCc2c(-c3cnc4cc(C(F)F)ccn34)ccc(Nc3ccc(N4CCC(O)CC4)cn3)c21` [I-194, 4-[7-(difluorometh-yl)imidazo[1,2-a]pyridin-3-yl]-7-[[5-(4-hydroxy-1-piperidyl)-2-pyripyl]amino] isoindolin-1-one], the IC50 is < 100 nM.

With `CN1CCc2cc(Nc3ccc(-c4ccnc5c4ccn5C)c4c3C(=O)NC4)nn2CC1=O` [I-294, 6-methyl-2-((7-(1-methyl-1H-pyrrolo[2,3-b]pyridin-4-yl)-3-oxoisoindolin-4-yl)amino)-5.6-dihydro-4H-pyrazolo[1,5-d][l,4]diaze-pin-7(8H)-one], the IC50 is < 100 nM.

For `O=C1NCc2c(-c3cnc4cc(F)ccn34)ccc(Nc3ccc(C4CCOC4)c(CN4CCOCC4)n3)c21` (stereo in doubt) [I-721, (R)-4-(7-fluoroimidazo [1,2-a]pyridin-3-yl)-7-((6-(morpliolinomethyl)-5-(tetrahydrofuran-3-yl)pyridin-2-yl)amino)isoin-dolin-1-one], the half-maximal inhibitory concentration (IC50) is < 100 nM. For the compound `CN(C)CC1CN(c2ccc(Nc3ccc(-c4cnc5cc(F)ccn45)c4c3C(=O)NC4)nc2)CCO1` (stereo not shown) [I-383, 7-((5-(2-((dimethylamino)-methyl)mor pholino)pyridin-2-yl)amino)-4-(7-fluoroimidazo [1,2-a]pyridin-3-yl)isoindolin-1-one], the IC50 was < 100 nM. In the case of `CN1CCN(c2ccc(Nc3ccc(-c4ccnc5cc[nH]c45)c4c3C(=O)NC4)nc2)CC1` [I-81, 7-[[5-(4-methylpiperazin-1-yl)-2-pyridyl]amino]-4-(1H-pyrrolo[3,2-b]pyridin-7-yl)isoindolin-1-one], the IC50 was < 100 nM. On to `Cc1cc(Nc2cnc(-c3ccnc4c3ccn4C)c3c2C(=O)NC3)nc(N2CC[C@@H]3CN(C)C[C@@H]32)c1` [I-644, 4-(1-methyl-1H-pyrrolo[2,3-b]pyridin-4-yl)-7-((4-methyl-6-((3aR,6aR)-5-methylhexahydropyrrolo[3,4-b]pyrrol-1(2H)-yl)pyridin-2-yl)amino)-2,3-dihydro-1H-pyrrolo[3,4-c]pyridin-1-one], for which the IC50 lay in the range of 100 to 1000 nM. Regarding `Cn1cc(-c2ccc(Nc3ccc(N4CCC(O)CC4)cn3)c3c2CNC3=O)c2ccnnc21` [I-374, 7-((5-(4-hydroxy-piperidin-1-yl)pyridin-2-yl)amino)-4-(7-methyl-7H-pyrrolo[2,3-c]pyridazin-5-yl)isoindolin-1-one], the IC50 is < 100 nM.

Regarding `Cc1ccn2c(-c3ccc(Nc4ccc(N5CCO[C@@H](C(C)(C)O)C5)cn4)c4c3CNC4=O)cnc2c1F` [I-487, 4-(8-fluoro-7-methyl-imidazo[1,2-a]pyridin-3-yl)-7-[[5-[(2R)-2-(1-hydroxy-1-methyl-ethyl)morpholin-4-yl]-2-pyridyl]amino]isoindolin-1-one], the IC50 is < 100 nM. As to `O=C1NCc2c(-c3cnc4cc(F)ccn34)ccc(Nc3ccc([C@H]4CCOC4)c(CN4CCOCC4)n3)c21` (stereo in doubt) [I-720, (SMK7-fluoroimidazo [1,2-a]pyridin-3-yl)-7-((6-(morpholinomethyl)-5-(tetrahydrofuran-3-yl)pyridin-2-yl)amino)isoin-dolin-1-one], the IC50 is < 100 nM.

`Cc1c[nH]c2nccc(-c3ncc(Nc4ccc(N5CCN(C)CC5)cn4)c4c3CNC4=O)c12` [I-19, 7-[[5-(4-methylpiperazin-1-yl)-2-pyridyl]amino]-4-(3-methyl-1H-pyrrolo[2,3-b]pyridin-4-yl)-2,3-dihydropyrrolo [3,4-c]pyridin-1-one]: the IC50 is < 100 nM. For the compound `CN(Cc1nc(Nc2ccc(-c3cnc4cc(F)ccn34)c3c2C(=O)NC3)ccc1C1CCOC1)CC(F)(F)F` (stereo in doubt) [I-765, (R)-4-(7-fluoroimidazo [1,2-a]pyridin-3-yl)-7-((6-((methyl(2,2,2 trifluoroethyl)amino)methyl)-5-(tetrahydrofuran-3-yl)pyridin-2-yl)amino)isoin-dolin-1-one], the IC50 is < 100 nM. As to `Cc1cccc2c(-c3ccc(Nc4ccc(C5CCOC5)c(CN(C)C)n4)c4c3CNC4=O)cnn12` (stereo in doubt) [I-710, (R)-7-((6-((dimethylamino)-methyl)-5-(tetrahydrofuran-3-yl)pyridin-2-yl)amino)-4-(7-methylpyra-zolo[1,5-a]pyridin-3-yl)isoindolin-1-one], the IC50 was < 100 nM.

Consider `C[C@H](O)[C@H]1CN(c2ccc(Nc3ccc(-c4cnc5cc(F)ccn45)c4c3C(=O)NC4)nc2)CCO1` [I-634, 4-(7-fluoroimidazo[1,2-a]pyridin-3-yl)-7-((5-((R)-2-((S)-1-hydroxyethyl)morpholino)pyridin-2-yl)amino)isoindolin-1-one], for which the half-inhibitory concentration (IC50) was < 100 nM.

With `O=C1NCc2c(-c3cnc4cc(F)ccn34)ccc(Nc3ccc(S(=O)(=O)CC4COC4)cn3)c21` [I-377, 4-(7-fluoroimidazo [1,2-a]pyridin-3-yl)-7-((5-((oxctan-3-ylmethyl)sulf-onyl)pyridin-2-yl)amino)isoin-dolin-1-one], the IC50 was in the range of 100 to 1000 nM.

For the compound `CN1CCN(c2cccc(Nc3ccc(-c4cnc5cc(Cl)ccn45)c4c3C(=O)NC4)n2)CC1` [I-236, 4-(7-chloroimidazo [1,2-a]pyridin-3-yl)-7-[[6-(4-methylpiperazin-1-yl)-2-pyridyl]amino] isoindolin-1-one], the IC50 is < 100 nM. Consider `Cc1ccn2c(-c3ccc(Nc4ccc(CN5CCN(C)CC5)cn4)c4c3CNC4=O)cnc2c1F` [I-605, 4-(8-fluoro-7-methylimidazo [1,2-a]pyridin-3-yl)-7-((5-((4-methylpiperazin-1-yl)methyl)pyri-din-2-yl)amino)isoin-dolin-1-one], for which the IC50 was < 100 nM.
